Test results as given in patent publication US20250346585A1 (Alexion Pharmaceuticals, Inc., priority 2022, published 2025).
Where two headings read alike, the source gives them in different places.

Molecular target: Human complement C1s enzyme (Homo sapiens (Human), UniProt P09871)
Assay: Human C1s enzyme assay
Type: biochemical
Conditions: read-out: IC50 (Stars)
Summary of the method: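 Purified serum-derived human C1s (1.16 nM final) preincubated 5 min at room temperature with compound in 50 mM Tris, 1 M NaCl, pH 7.5. Z-L-Lys-SBzl thioester substrate and DTNB added (100 μM each, final); A405 read every 30 s for 30 min. IC50 from nonlinear regression of reaction rates against compound concentration.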

[1] = Human complement C1s enzyme 1.16 nM, substrate Z-L-Lys-SBzl 100 μM, assay of Example 3
[2] = Human C1s enzyme assay of Example 3

Chain of Human complement C1s enzyme (P09871 438-688 limits assumed): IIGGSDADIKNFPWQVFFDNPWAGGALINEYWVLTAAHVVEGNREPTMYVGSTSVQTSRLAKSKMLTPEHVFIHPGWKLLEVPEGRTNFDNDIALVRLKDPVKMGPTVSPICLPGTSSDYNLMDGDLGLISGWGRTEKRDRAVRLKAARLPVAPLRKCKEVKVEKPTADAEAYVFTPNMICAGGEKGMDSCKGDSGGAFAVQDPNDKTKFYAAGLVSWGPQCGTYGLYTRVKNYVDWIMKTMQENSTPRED
Chain of Human complement C1s enzyme (P09871 16-437 partner limits assumed): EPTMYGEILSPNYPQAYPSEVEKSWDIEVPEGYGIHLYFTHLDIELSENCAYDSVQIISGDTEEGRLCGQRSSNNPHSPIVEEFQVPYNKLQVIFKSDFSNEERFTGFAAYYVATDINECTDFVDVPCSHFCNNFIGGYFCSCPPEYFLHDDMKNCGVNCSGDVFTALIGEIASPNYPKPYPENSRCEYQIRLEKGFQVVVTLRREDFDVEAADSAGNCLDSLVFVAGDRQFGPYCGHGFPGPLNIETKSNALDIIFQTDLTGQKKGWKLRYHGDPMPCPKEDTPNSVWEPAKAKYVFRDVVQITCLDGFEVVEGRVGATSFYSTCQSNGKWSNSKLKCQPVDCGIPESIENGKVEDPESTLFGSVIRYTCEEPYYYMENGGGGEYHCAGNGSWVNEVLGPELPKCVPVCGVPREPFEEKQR

C[C@@H](NC(=O)[C@@H]1CC2(CN1C(=O)CNC(=O)c1ccc3nc4ccccc4cc3c1)OCCO2)c1cc(C(=N)N)cs1 [Compound 391, (S)-7-((acridine-2-carbonyl)glycyl)-N—((R)-1-(4-carbamimidoylthiophen-2-yl)ethyl)-1,4-dioxa-7-azaspiro[4.4]nonane-8-carboxamide]
IC50 [1]: < 100 nM

Cc1cccc2c1-c1cc(C(=O)NCC(=O)N3CC4(C[C@H]3C(=O)N[C@H](C)c3cc(C(=N)N)cs3)OCCO4)ccc1C2(F)F [Compound 177, (S)—N—((R)-1-(4-carbamimidoylthiophen-2-yl)ethyl)-7-((9,9-difluoro-5-methyl-9H-fluorene-3-carbonyl)glycyl)-1,4-dioxa-7-azaspiro[4.4]nonane-8-carboxamide]
IC50 [2]: < 100 nM

O=C(NCC(=O)N1CC2(C[C@H]1C(=O)NCc1cc(NC3=NCCS3)cs1)OCCO2)c1ccc(Oc2ccc(F)cc2)cc1 [Compound 284, (S)-N-((4-((4,5-dihydrothiazol-2-yl)amino)thiophen-2-yl)methyl)-7-((4-(4-fluorophenoxy)benzoyl)glycyl)-1,4-dioxa-7-azaspiro[4.4]nonane-8-carboxamide]
IC50 [1]: > 1000 nM

C[C@@H](NC(=O)[C@@H]1C[C@@H](OC(F)F)CN1C(=O)CNC(=O)c1ccc2cc3ccccc3cc2c1)c1cc(C(=N)N)cs1 [Compound 206, (2S,4R)-1-((anthracene-2-carbonyl)glycyl)-N—((R)-1-(4-carbamimidoylthiophen-2-yl)ethyl)-4-(difluoromethoxy)pyrrolidine-2-carboxamide]
IC50 [1]: < 100 nM

Cc1ccc(-c2ccc3c(c2)CN(CC(=O)N2CC4(C[C@H]2C(=O)NCc2cc(C(=N)N)cs2)OCCO4)C3=O)c(C)c1 [Compound 240, (S)—N-((4-carbamimidoylthiophen-2-yl)methyl)-7-(2-(5-(2,4-dimethylphenyl)-1-oxoisoindolin-2-yl)acetyl)-1,4-dioxa-7-azaspiro[4.4]nonane-8-carboxamide]
IC50 [1]: < 100 nM

C[C@@H](NC(=O)[C@@H]1C[C@@H](OC(F)F)CN1C(=O)CNC(=O)c1ccc2[nH]c3ccccc3c2c1)c1cc(C(=N)N)cs1 [Compound 326, N-(2-((2S,4R)-2-(((R)-1-(4-carbamimidoylthiophen-2-yl)ethyl)carbamoyl)-4-(difluoromethoxy)pyrrolidin-1-yl)-2-oxoethyl)-9H-carbazole-3-carboxamide]
IC50 [1]: < 100 nM

C[C@@H](NC(=O)[C@@H]1CC2(CN1C(=O)CNC(=O)c1ccc3c(c1)C(F)(F)c1ccccc1-3)OCCO2)c1cc(C(=N)N)cs1 [Compound 138, (S)—N—((R)-1-(4-carbamimidoylthiophen-2-yl)ethyl)-7-((9,9-difluoro-9H-fluorene-7-carbonyl)glycyl)-1,4-dioxa-7-azaspiro[4.4]nonane-8-carboxamide]
IC50 [2]: < 100 nM

COC[C@@]1(F)C[C@@H](C(=O)N[C@H](C)c2cc(C(=N)N)cs2)N(C(=O)CNC(=O)c2ccc(C(F)(F)c3ccccc3)cc2)C1 [Compound 136, (2S,4R)—N—((R)-1-(4-carbamimidoylthiophen-2-yl)ethyl)-1-((4-(difluoro(phenyl)methyl)benzoyl)glycyl)-4-fluoro-4-(methoxymethyl)pyrrolidine-2-carboxamide]
IC50 [2]: < 100 nM

NCC(=O)Nc1csc(CNC(=O)[C@@H]2CC3(CN2C(=O)CNC(=O)c2ccc(Oc4ccc(F)cc4)cc2)OCCO3)c1 [Compound 316, (S)-N-((4-(2-aminoacetamido)thiophen-2-yl)methyl)-7-((4-(4-fluorophenoxy)benzoyl)glycyl)-1,4-dioxa-7-azaspiro[4.4]nonane-8-carboxamide]
IC50 [1]: 100 to 1000 nM

C[C@@H](NC(=O)[C@@H]1C[C@@H](S(C)(=O)=O)CN1C(=O)CNC(=O)c1ccc2cc3ccccc3cc2c1)c1cc(C(=N)N)cs1 [Compound 239, (2S,4R)-1-((anthracene-2-carbonyl)glycyl)-N—((R)-1-(4-carbamimidoylthiophen-2-yl)ethyl)-4-(methylsulfonyl)pyrrolidine-2-carboxamide]
IC50 [1]: < 100 nM

Cc1cc(C(=O)NCC(=O)N2CC3(C[C@H]2C(=O)NCc2cc(C(=N)N)cs2)OCCO3)ccc1-c1ccccc1 [Compound 115, (S)—N-((4-carbamimidoylthiophen-2-yl)methyl)-7-((2-methyl-[1,1′-biphenyl]-4-carbonyl)glycyl)-1,4-dioxa-7-azaspiro[4.4]nonane-8-carboxamide]
IC50 [2]: < 100 nM

COC[C@@]12C[C@@H]1N(C(=O)CNC(=O)c1ccc(Oc3ccc(F)cc3)cc1)[C@H](C(=O)N[C@H](C)c1cc(C(=N)N)cs1)C2 [Compound 44, (1S,3S,5R)—N—((R)-1-(4-carbamimidoylthiophen-2-yl)ethyl)-2-((4-(4-fluorophenoxy)benzoyl)glycyl)-5-(methoxymethyl)-2-azabicyclo[3.1.0]hexane-3-carboxamide]
IC50 [2]: < 100 nM

C[C@@H](NC(=O)[C@@H]1C[C@@H](OC(F)F)CN1C(=O)CNC(=O)c1ccc(Oc2ccc(Cl)cc2)cc1)c1cc(C(=N)N)cs1 [Compound 43, (2S,4R)—N—((R)-1-(4-carbamimidoylthiophen-2-yl)ethyl)-1-((4-(4-chlorophenoxy)benzoyl)glycyl)-4-(difluoromethoxy)pyrrolidine-2-carboxamide]
IC50 [2]: < 100 nM

C[C@@H](NC(=O)[C@@H]1C[C@H](C2CCCCC2)CN1C(=O)CNC(=O)c1ccc(Oc2ccc(F)cc2)cc1)c1cc(C(=N)N)cs1 [Compound 93, (2S,4R)—N—((R)-1-(4-carbamimidoylthiophen-2-yl)ethyl)-4-cyclohexyl-1-((4-(4-fluorophenoxy)benzoyl)glycyl)pyrrolidine-2-carboxamide]
IC50 [2]: < 100 nM

COC[C@@]1(F)C[C@@H](C(=O)N[C@H](C)c2cc(/C(N)=N\C(=O)OC)cs2)N(C(=O)CNC(=O)c2ccc3c(c2)-c2ccccc2C3(F)F)C1 [Compound 232, methyl ((E)-amino(5-((R)-1-((2S,4R)-1-((9,9-difluoro-9H-fluorene-3-carbonyl)glycyl)-4-fluoro-4-(methoxymethyl)pyrrolidine-2-carboxamido)ethyl)thiophen-3-yl)methylene)carbamate]
IC50 [1]: < 100 nM

C[C@@H](NC(=O)[C@@H]1C[C@]2(Cn3cncn3)C[C@@H]2N1C(=O)CNC(=O)c1ccc2c(c1)-c1ccccc1C2(F)F)c1cc(C(=N)N)cs1 [Compound 281, (1S,3S,5S)-5-((1H-1,2,4-triazol-1-yl)methyl)-N—((R)-1-(4-carbamimidoylthiophen-2-yl)ethyl)-2-((9,9-difluoro-9H-fluorene-3-carbonyl)glycyl)-2-azabicyclo[3.1.0]hexane-3-carboxamide]
IC50 [1]: < 100 nM

C[C@@H](NC(=O)[C@@H]1C[C@@H](S(C)(=O)=O)CN1C(=O)CNC(=O)c1ccc2c(c1)Oc1ccccc1S2)c1cc(C(=N)N)cs1 [Compound 333, (2S,4R)—N—((R)-1-(4-carbamimidoylthiophen-2-yl)ethyl)-4-(methylsulfonyl)-1-((phenoxathiine-3-carbonyl)glycyl)pyrrolidine-2-carboxamide]
IC50 [1]: < 100 nM

C[C@@H](NC(=O)[C@@H]1C[C@@H](OC(F)F)CN1C(=O)CNC(=O)c1ccc2c(c1)-c1ccccc1C2(F)F)c1ccc(C(=N)N)s1 [Compound 30, (2S,4R)—N—((R)-1-(5-carbamimidoylthiophen-2-yl)ethyl)-1-((9,9-difluoro-9H-fluorene-3-carbonyl)glycyl)-4-(difluoromethoxy)pyrrolidine-2-carboxamide]
IC50 [2]: < 100 nM

N=C(N)c1csc(CNC(=O)[C@@H]2CC3(CN2C(=O)CNC(=O)c2ccc(-c4ccc(F)cc4)o2)OCCO3)c1 [Compound 299, (S)—N-((4-carbamimidoylthiophen-2-yl)methyl)-7-((5-(4-fluorophenyl)furan-2-carbonyl)glycyl)-1,4-dioxa-7-azaspiro[4.4]nonane-8-carboxamide]
IC50 [1]: < 100 nM

C[C@H]1C[C@@H](C(=O)N[C@H](C)c2cc(C(=N)N)cs2)N(C(=O)CNC(=O)c2ccc3oc4ccccc4c3c2)C1 [Compound 226, (2S,4S)—N—((R)-1-(4-carbamimidoylthiophen-2-yl)ethyl)-1-((dibenzo[b,d]furan-2-carbonyl)glycyl)-4-methylpyrrolidine-2-carboxamide]
IC50 [1]: < 100 nM

N=C(N)c1csc(CNC(=O)[C@@H]2CC3(CN2C(=O)CNC(=O)c2ccc4c(c2)-c2ccccc2C4(F)F)OCCO3)c1 [Compound 55, (S)—N-((4-carbamimidoylthiophen-2-yl)methyl)-7-((9,9-difluoro-9H-fluorene-3-carbonyl)glycyl)-1,4-dioxa-7-azaspiro[4.4]nonane-8-carboxamide]
IC50 [2]: < 100 nM

N=C(N)c1csc(CNC(=O)[C@@H]2CC3(CN2C(=O)CNC(=O)c2ccc(-c4ccccc4)cc2)OCCO3)c1 [Compound 77, (S)-7-(([1,1′-biphenyl]-4-carbonyl)glycyl)-N-((4-carbamimidoylthiophen-2-yl)methyl)-1,4-dioxa-7-azaspiro[4.4]nonane-8-carboxamide]
IC50 [2]: < 100 nM

C[C@@H](NC(=O)[C@@H]1C[C@](F)(CF)CN1C(=O)CNC(=O)c1ccc2oc3ccccc3c2c1)c1cc(C(=N)N)cs1 [Compound 223, (2S,4R)—N—((R)-1-(4-carbamimidoylthiophen-2-yl)ethyl)-1-((dibenzo[b,d]furan-2-carbonyl)glycyl)-4-fluoro-4-(fluoromethyl)pyrrolidine-2-carboxamide]
IC50 [1]: < 100 nM

C[C@@]12C[C@@H]1N(C(=O)CNC(=O)c1ccc3c(c1)-c1ccccc1C3(F)F)[C@H](C(=O)Nc1cc(C(=N)N)cs1)C2 [Compound 259, (1S,3S,5S)—N-(4-carbamimidoylthiophen-2-yl)-2-((9,9-difluoro-9H-fluorene-3-carbonyl)glycyl)-5-methyl-2-azabicyclo[3.1.0]hexane-3-carboxamide]
IC50 [1]: > 1000 nM

C[C@@H](NC(=O)[C@@H]1CC2(CN1C(=O)CNC(=O)c1ccc(-c3ccc(F)cc3)cc1)OCCO2)c1cc(C(=N)N)cs1 [Compound 101, (S)—N—((R)-1-(4-carbamimidoylthiophen-2-yl)ethyl)-7-((4′-fluoro-[1,1′-biphenyl]-4-carbonyl)glycyl)-1,4-dioxa-7-azaspiro[4.4]nonane-8-carboxamide]
IC50 [2]: < 100 nM
